This is an account of results in paper PMC11005723, “Development of Complementary Photo‐arginine/lysine to Promote Discovery of Arg/Lys hPTMs Interactomes” (Advanced Science, 2024).

For orientation: Kd means a measure of binding affinity in units of concentration.

The target in test [1] is T1, PHD domain of UHRF1 (UHRF1PHD) (Homo sapiens, UniProt Q96T88).
T1 construct: the PHD domain of UHRF1 (UHRF1PHD)
T1 sequence (Q96T88 310-366 limits assumed): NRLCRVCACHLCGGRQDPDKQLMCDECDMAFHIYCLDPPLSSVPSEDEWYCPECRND
Nature of the test: ITC binding of H3 peptides to UHRF1PHD. As to conditions: 25 °C, 19 injections of peptide into protein, dz peptides carry pre‐installed biotin, done two times. Here is the method:
Experiments were performed at 25 °C on a MicroCal PEAQ‐ITC automated (Malvern Instruments). Protein was loaded in the cell was titrated with 19 injections of peptides. The binding isotherm was fit with MicroCal PEAQ‐ITC Analysis software. The assay was done two times to confirm results.

For a further test, the target named is T2, RBBP4 (Homo sapiens, UniProt Q09028).
T2 construct: DNA fragment encoding RBBP4/7 (1‐ 425) was cloned into pFBOH‐LIC donor plasmid; His (inferred from Ni-NTA purification; vector pFBOH-LIC); made in house; host or cells: sf9 insect cells (baculovirus)
T2 sequence (Q09028 whole entry, the tested form may be a part): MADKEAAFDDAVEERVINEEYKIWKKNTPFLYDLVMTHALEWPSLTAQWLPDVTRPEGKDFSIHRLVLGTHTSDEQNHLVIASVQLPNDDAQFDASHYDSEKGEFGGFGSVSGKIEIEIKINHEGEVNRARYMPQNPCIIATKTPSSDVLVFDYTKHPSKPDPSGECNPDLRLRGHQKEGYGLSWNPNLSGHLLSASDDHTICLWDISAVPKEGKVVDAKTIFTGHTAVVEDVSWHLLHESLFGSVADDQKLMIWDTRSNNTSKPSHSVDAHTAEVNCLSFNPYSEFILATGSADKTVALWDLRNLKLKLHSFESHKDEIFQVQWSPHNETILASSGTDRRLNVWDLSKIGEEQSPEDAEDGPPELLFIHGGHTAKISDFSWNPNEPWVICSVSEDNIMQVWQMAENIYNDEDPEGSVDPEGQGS
Nature of the test: ITC binding of native H3 peptides to RBBP4. As to conditions: H3R2me2a versus H3R2, from ITC Kd. Here is the method: (§1) DNA fragment encoding RBBP4/7 (1‐ 425) was cloned into pFBOH‐LIC donor plasmid. The resulting plasmid was transformed into DH10Bac Competent E. coli cells (Invitrogen) and a recombinant Bacmid DNA was purified and followed by a recombinant baculovirus generation in sf9 insect cells. sf9 cells grown in HyQ SFX insect serum‐free medium (Thermo Scientific) were infected with 10 mL of P3 viral stocks per 1 L of suspension cell culture and incubated at 27 °C using a platform shaker set at 150 rpm. The cells were harvested by centrifugation (4000 rpm for 10 min at 4 °C) after 72 h of post‐infection time when viability dropped to 70–80%. […] Fractions were assessed by SDS‐PAGE electrophoresis and those containing pure protein were pooled, concentrated, and flash‐frozen for storage at −80 °C. […]

For the next test, the target named is T3, RBBP7 (Homo sapiens, UniProt Q16576).
T3 construct: DNA fragment encoding RBBP4/7 (1‐ 425) was cloned into pFBOH‐LIC donor plasmid; His (inferred from Ni-NTA purification; vector pFBOH-LIC); made in house; host or cells: sf9 insect cells (baculovirus)
T3 sequence (Q16576 whole entry, the tested form may be a part): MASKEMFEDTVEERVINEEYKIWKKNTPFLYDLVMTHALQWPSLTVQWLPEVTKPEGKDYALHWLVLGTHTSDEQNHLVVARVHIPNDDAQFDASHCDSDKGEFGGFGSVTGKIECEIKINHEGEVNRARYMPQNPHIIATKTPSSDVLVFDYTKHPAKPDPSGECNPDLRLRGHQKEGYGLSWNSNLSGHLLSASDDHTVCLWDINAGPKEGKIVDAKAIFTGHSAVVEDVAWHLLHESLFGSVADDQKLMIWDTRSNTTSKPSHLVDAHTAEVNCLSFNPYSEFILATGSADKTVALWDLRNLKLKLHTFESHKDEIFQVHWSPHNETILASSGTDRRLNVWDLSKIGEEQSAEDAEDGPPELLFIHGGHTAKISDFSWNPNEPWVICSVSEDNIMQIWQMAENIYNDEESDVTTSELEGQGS
As to the kind of experiment: ITC binding of native H3 peptides to RBBP7. The settings on record: H3R2me2a versus H3R2, from ITC Kd. The procedure: as §1

Test [2] addresses T4, tandem PHD domain of DPF2 (DPF2PHD) (Homo sapiens, UniProt Q92785).
T4 construct: His‐DPF2PHD (residues 270–391) domain in pET28‐MHL vector; His (N); made in house; host or cells: Escherichia coli BL21 (DE3)
Nature of the test: ITC binding of native H3 peptides to DPF2PHD. The settings on record: 25 °C, native H3_1‐15 peptides without diazirine and biotin, n = 2, representative data.

Test [3] addresses T5, PWWP domain of MSH6 (MSH6PWWP) (Homo sapiens, UniProt P52701).
T5 construct: His‐MSH6PWWP (residues 87–198) domain in pET28‐MHL vector; His (N); made in house; host or cells: Escherichia coli BL21 (DE3)
As to the kind of experiment: ITC binding of H3R2me2a to MSH6PWWP. As to conditions: 25 °C. Here is the method: His‐MSH6PWWP (residues 87–198) domain in pET28‐MHL vector. His‐ MSH6PWWP were expressed in Escherichia coli strain BL21 (DE3) (Novagen) with 0.5 mM IPTG induction at 16 °C in LB medium. After cell lysis by French Press Cell Disrupter (Thermo) and centrifugation, the supernatant was applied to a HisTrap (GE Healthcare) nickel column, and the bound protein was eluted with a linear imidazole gradient from 20 to 500 mM. And further purified by a HiLoad 16/60 Superdex 75 (GE Healthcare) gel filtration column. The pure protein were pooled and dialyzed in buffer (100 mM NaCl, 20 mM Tris, pH 7.5) with Slide‐A‐Lyzer (10000 MWCO). At last, the dialyzed protein were concentrated with to 5 mg mL^−1 and stored in −80 °C freezer for future use. Experiments were performed at 25 °C on a MicroCal PEAQ‐ITC automated (Malvern Instruments). Protein was loaded in the cell was titrated with 19 injections of peptides. The binding isotherm was fit with MicroCal PEAQ‐ITC Analysis software. The assay was done two times to confirm results.

T4 sequence (Q92785 270-391): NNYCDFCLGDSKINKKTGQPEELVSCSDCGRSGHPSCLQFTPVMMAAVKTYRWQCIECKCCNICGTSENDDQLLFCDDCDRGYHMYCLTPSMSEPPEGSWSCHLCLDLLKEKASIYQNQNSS
T5 sequence (P52701 87-198): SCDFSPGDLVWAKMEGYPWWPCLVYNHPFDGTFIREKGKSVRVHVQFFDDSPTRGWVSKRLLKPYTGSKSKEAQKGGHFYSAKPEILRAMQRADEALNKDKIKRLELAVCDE

The molecule `C[C@H](N)C(=O)N[C@@H](CCCNC(=N)N)C(=O)N[C@H](C(=O)N[C@@H](CCC1(CN)N=N1)C(=O)N[C@@H](CCC(N)=O)C(=O)N[C@H](C(=O)N[C@@H](C)C(=O)N[C@@H](CCCNC(=N)N)C(=O)N[C@@H](CCCCN)C(=O)N[C@@H](CO)C(=O)N[C@H](C(=O)NCC(=O)NCC(=O)N[C@@H](CCCCNC(=O)CCCC[C@@H]1SC[C@@H]2NC(=O)N[C@@H]21)C(=O)N[C@@H](C)C(N)=O)[C@@H](C)O)[C@@H](C)O)[C@@H](C)O` [H3K4‐dz] yielded a Kd in test [1] of 6.4 µM. In other words, the single-digit micromolar range.
Take `C[C@H](N)C(=O)N[C@@H](CCCNC(=N)N(C)C)C(=O)N[C@H](C(=O)N[C@@H](CCC1(CN)N=N1)C(=O)N[C@@H](CCC(N)=O)C(=O)N[C@H](C(=O)N[C@@H](C)C(=O)N[C@@H](CCCNC(=N)N)C(=O)N[C@@H](CCCCN)C(=O)N[C@@H](CO)C(=O)N[C@H](C(=O)NCC(=O)NCC(=O)N[C@@H](CCCCNC(=O)CCCC[C@@H]1SC[C@@H]2NC(=O)N[C@@H]21)C(=O)N[C@@H](C)C(N)=O)[C@@H](C)O)[C@@H](C)O)[C@@H](C)O` [H3R2me2a]: the “decrease in binding affinity by asymmetric methylation (RBBP4)” value at RBBP4 is “three–fourfold decrease”. In addition, the “decrease in binding affinity by asymmetric methylation (RBBP7)” value on RBBP7 is “three–fourfold decrease”. In test [2], the “Kd (DPF2PHD)” value was “no binding affinity detected”. Moreover, the “interaction with MSH6PWWP via ITC” value in test [3] is “undetectable”.
The molecule `C[C@H](N)C(=O)N[C@@H](CC1(CNC(=N)N)N=N1)C(=O)N[C@H](C(=O)N[C@@H](CCCCN)C(=O)N[C@@H](CCC(N)=O)C(=O)N[C@H](C(=O)N[C@@H](C)C(=O)N[C@@H](CCCNC(=N)N)C(=O)N[C@@H](CCCCN)C(=O)N[C@@H](CO)C(=O)N[C@H](C(=O)NCC(=O)NCC(=O)N[C@@H](CCCCNC(=O)CCCC[C@@H]1SC[C@@H]2NC(=O)N[C@@H]21)C(=O)N[C@@H](C)C(N)=O)[C@@H](C)O)[C@@H](C)O)[C@@H](C)O` [H3R2‐dz] showed a Kd in test [1] of 10.6 µM.
